# From article PMC5601486, “Identification of 4-phenylquinolin-2(1H)-one as a specific allosteric inhibitor of Akt” (Scientific Reports, 2017)
# Columns and labels:
# Akt S473 phosphorylation = test: Western blot analysis of S473 phosphorylation; type: cell-based; conditions: Mus musculus, N2a, 0.5 h; Neuro 2A cells, IGF stimulation 30 min; read-out: IC50 of IGF-induced S473 phosphorylation
# Experimental: Neuro 2A cells were seeded in 12-well plates in DMEM containing 5% FBS for 24 hr.
# After overnight serum starvation (in 0% FBS DMEM), cells were incubated for 30 min at 37 °C with G7 or LY294002 or Torin 1 (Sigma Aldrich) at various concentrations, or DMSO control. IGF-1 was added to each well at a final concentration of 100 ng/mL. After 30-min incubation cells were washed with cold PBS and lysed with 50 µL lysis buffer containing 1% Triton X-100 and protease/phosphatase inhibitors (Cell Signaling Technology) or RIPA buffer (Santa Cruz Biotech). Samples were electrophoresed in 4–12% Bis-Tris gels (Life Technologies) at 150 V using MOPS SDS running buffer. Proteins were transferred electrophoretically to a PVDF or nitrocellulose membrane. For detection of cleaved […]
# caspase 3 a Trans-Blot Turbo Transfer System (Bio-Rad, 25 V for 25 min) with PVDF membrane were used. […]
# anti- GAPDH (14C10) antibody (#2118) (all antibodies were from Cell Signaling Technology unless indicated, 1:1000 dilution was used) at 4°C overnight, washed three times with TBS-T, then incubated with peroxidase-conjugated secondary antibody (Sigma-Aldrich) for 1 hr at room temperature. […] Band intensity was quantitated using Kodak 1D imaging analysis software. […]
# LIMK1 = test: KINOMEscan; conditions: 50000 nM
# Experimental: KINOMEscan™ selectivity screen
# (§1) The assay was perfor med at DiscoveRx Corporation according the methods published previously5. Briefly, Kinase-tagged T7 phage strains were grown in parallel in an E. coli host derived from the BL21 strain. E. coli were grown to log-phase and infected with T7 phage from a frozen stock and incubated with shaking at 32°C until lysis (90-150 minutes). The kinases were produced in HEK-293 cells and subsequently tagged with DNA for qPCR detection. Streptavidin-coated magnetic beads were treated with biotinylated small molecule ligands to generate affinity resins for kinase
# (§2) inhibitor or DMSO control was performed in polypropylene 384-well plates for 1 hr at room temperature. After wash with PBS buffer containing 0.05% Tween 20, the beads were incubated in elution buffer (PBS containing 0.05 % Tween 20 and 0.5 μM non-biotinylated affinity ligand) for 30 minutes at room temperature. The kinase concentration in the eluates was measured by qPCR.
# MAP4K4 = test: KINOMEscan; conditions: 50000 nM
# Experimental: KINOMEscan™ selectivity screen
# as §1, §2
# MYLK2 = test: KINOMEscan; conditions: 50000 nM
# Experimental: KINOMEscan™ selectivity screen
# as §1, §2
# MYO3B = test: KINOMEscan; conditions: 50000 nM
# Experimental: KINOMEscan™ selectivity screen
# as §1, §2
# PIK3CA(E545A) = test: KINOMEscan; conditions: 50000 nM
# Experimental: KINOMEscan™ selectivity screen
# (§3) Briefly, Kinase-tagged T7 phage strains were grown in parallel in an E. coli host derived from the BL21 strain. E. coli were grown to log-phase and infected with T7 phage from a frozen stock and incubated with shaking at 32°C until lysis (90-150 minutes). The kinases were produced in HEK-293 cells and subsequently tagged with DNA for qPCR detection. Streptavidin-coated magnetic beads were treated with biotinylated small molecule ligands to generate affinity resins for kinase
# as §2
# YANK1 = test: KINOMEscan; conditions: 50000 nM
# Experimental: KINOMEscan™ selectivity screen
# as §3, §2
# ZAP70 = test: KINOMEscan; conditions: 50000 nM
# Experimental: KINOMEscan™ selectivity screen
# as §3, §2
# AMPK-alpha2 = test: KINOMEscan; conditions: 50000 nM
# Experimental: KINOMEscan™ selectivity screen
# as §1, §2
# MELK = test: KINOMEscan; conditions: 50000 nM
# Experimental: KINOMEscan™ selectivity screen
# as §1, §2
# FGFR4 = test: KINOMEscan; conditions: 50000 nM
# Experimental: KINOMEscan™ selectivity screen
# (§4) The assay was perfor med at DiscoveRx Corporation according the methods published previously5. […] The kinases were produced in HEK-293 cells and subsequently tagged with DNA for qPCR detection. Streptavidin-coated magnetic beads were treated with biotinylated small molecule ligands to generate affinity resins for kinase
# as §2
# CDK4-cyclinD1 = test: KINOMEscan; conditions: 50000 nM
# Experimental: KINOMEscan™ selectivity screen
# as §1, §2
# RAF1 = test: KINOMEscan; conditions: 50000 nM
# Experimental: KINOMEscan™ selectivity screen
# as §1, §2
# TSSK1B = test: KINOMEscan; conditions: 50000 nM
# Experimental: KINOMEscan™ selectivity screen
# Briefly, Kinase-tagged T7 phage strains were grown in parallel in an E. coli host derived from the BL21 strain. E. coli were grown to log-phase and infected with T7 phage from a frozen stock and incubated with shaking at 32°C until lysis (90-150 minutes). The kinases were produced in HEK-293 cells and subsequently tagged with DNA for qPCR detection.
# After wash with PBS buffer containing 0.05% Tween 20, the beads were incubated in elution buffer (PBS containing 0.05 % Tween 20 and 0.5 μM non-biotinylated affinity ligand) for 30 minutes at room temperature. The kinase concentration in the eluates was measured by qPCR.
# EPHB4 = test: KINOMEscan; conditions: 50000 nM
# Experimental: KINOMEscan™ selectivity screen
# as §3, §2
# PHKG2 = test: KINOMEscan; conditions: 50000 nM
# Experimental: KINOMEscan™ selectivity screen
# as §3, §2
# EPHA6 = test: KINOMEscan; conditions: 50000 nM
# Experimental: KINOMEscan™ selectivity screen
# as §3, §2
# DRAK2 = test: KINOMEscan; conditions: 50000 nM
# Experimental: KINOMEscan™ selectivity screen
# as §1, §2
# RET(V804M) = test: KINOMEscan; conditions: 50000 nM
# Experimental: KINOMEscan™ selectivity screen
# as §1, §2
# DAPK2 = test: KINOMEscan; conditions: 50000 nM
# Experimental: KINOMEscan™ selectivity screen
# as §1, §2
# PLK2 = test: KINOMEscan; conditions: 50000 nM
# Experimental: KINOMEscan™ selectivity screen
# as §3, §2
# KIT-autoinhibited = test: KINOMEscan; conditions: 50000 nM
# Experimental: KINOMEscan™ selectivity screen
# as §1, §2
# DAPK3 = test: KINOMEscan; conditions: 50000 nM
# Experimental: KINOMEscan™ selectivity screen
# as §3, §2
# IRAK3 = test: KINOMEscan; conditions: 50000 nM
# Experimental: KINOMEscan™ selectivity screen
# as §3, §2
# RIPK5 = test: KINOMEscan; conditions: 50000 nM
# Experimental: KINOMEscan™ selectivity screen
# as §1, §2
# JNK2 = test: KINOMEscan; conditions: 50000 nM
# Experimental: KINOMEscan™ selectivity screen
# as §1, §2
# SRC = test: KINOMEscan; conditions: 50000 nM
# Experimental: KINOMEscan™ selectivity screen
# as §1, §2
# [1] = test system: ABL1(F317L)-phosphorylated; test: KINOMEscan; conditions: 50000 nM
# Experimental: KINOMEscan™ selectivity screen
# as §1, §2
# [2] = test system: ABL1(T315I)-phosphorylated; test: KINOMEscan; conditions: 50000 nM
# Experimental: KINOMEscan™ selectivity screen
# as §1, §2
# [3] = test system: JAK2(JH1domain-catalytic); test: KINOMEscan; conditions: 50000 nM
# Experimental: KINOMEscan™ selectivity screen
# as §3, §2
# TRKC = test: KINOMEscan; conditions: 50000 nM
# Experimental: KINOMEscan™ selectivity screen
# as §3, §2
# INSR = test: KINOMEscan; conditions: 50000 nM
# Experimental: KINOMEscan™ selectivity screen
# as §4, §2
# YSK4 = test: KINOMEscan; conditions: 50000 nM
# Experimental: KINOMEscan™ selectivity screen
# as §1, §2
# CAMK1B = test: KINOMEscan; conditions: 50000 nM
# Experimental: KINOMEscan™ selectivity screen
# as §4, §2
# AURKA = test: KINOMEscan; conditions: 50000 nM
# Experimental: KINOMEscan™ selectivity screen
# as §1, §2
# BTK = test: KINOMEscan; conditions: 50000 nM
# Experimental: KINOMEscan™ selectivity screen
# as §1, §2
# [4] = test system: ABL1(Q252H)-nonphosphorylated; test: KINOMEscan; conditions: 50000 nM
# Experimental: KINOMEscan™ selectivity screen
# as §1, §2
# EPHB6 = test: KINOMEscan; conditions: 50000 nM
# Experimental: KINOMEscan™ selectivity screen
# as §1, §2
compound,measurement,setting,value
"Oc1cc(-c2ccccc2)c2ccccc2n1 [G7, 4-phenylquinolin-2(1H)-one]",IC50,Akt S473 phosphorylation,18 µM
same,Percent Control,LIMK1,100%
same,Percent Control,MAP4K4,100%
same,Percent Control,MYLK2,100%
same,Percent Control,MYO3B,100%
same,Percent Control,PIK3CA(E545A),100%
same,Percent Control,YANK1,100%
same,Percent Control,ZAP70,100%
same,Percent Control,AMPK-alpha2,97%
same,Percent Control,MELK,97%
same,Percent Control,FGFR4,96%
same,Percent Control,CDK4-cyclinD1,95%
same,Percent Control,RAF1,95%
same,Percent Control,TSSK1B,93%
same,Percent Control,EPHB4,92%
same,Percent Control,PHKG2,91%
same,Percent Control,EPHA6,88%
same,Percent Control,DRAK2,86%
same,Percent Control,RET(V804M),85%
same,Percent Control,DAPK2,83%
same,Percent Control,PLK2,78%
same,Percent Control,KIT-autoinhibited,77%
same,Percent Control,DAPK3,74%
same,Percent Control,IRAK3,74%
same,Percent Control,RIPK5,73%
same,Percent Control,JNK2,68%
same,Percent Control,SRC,65%
same,Percent Control,[1],64%
same,Percent Control,[2],64%
same,Percent Control,[3],61%
same,Percent Control,TRKC,61%
same,Percent Control,INSR,56%
same,Percent Control,YSK4,55%
same,Percent Control,CAMK1B,52%
same,Percent Control,AURKA,50%
same,Percent Control,BTK,50%
same,Percent Control,[4],46%
same,Percent Control,EPHB6,14%
